Assay results reported in PMC5325569, “A new synthetic matrix metalloproteinase inhibitor reduces human mesenchymal stem cell adipogenesis” (PLoS ONE, 2017).
Each block holds one compound with its values, some of them ahead of it.

Key:
PPARγ [1] = test: qPCR of PPARγ gene expression in hMSCs undergoing adipogenesis; assay type: cell-based, human; settings: 10 μM, 21 days, harvested every 72 h, vs DMSO controls
Experimental: (§1) MMPI treated and untreated hMSCs were collected every 72 h over 21 days of differentiation. Total RNA from each time point was isolated using the E.Z.N.A. Total RNA Kit I (Omega Bio-Tek, Norcross, GA) and purified with the DNA-free RNA Kit (Zymo Research, Irvine, CA). RNA was resuspended in nuclease-free water, with concentrations determined via a Nanodrop UV-Vis Spectrophotometer (ThermoFisher Scientific, Waltham, MA). 500 ng of RNA was used for cDNA synthesis using qScript cDNA SuperMix (Quanta Bioscience, Gaitherburg, MD). 100 ng/μL cDNA was used as template for quantitative PCR on a 7500 Fast Real Time PCR system (Life Technologies, Carlsbad, CA) using PerfeCTa SYBR® Green SuperMix, Low Rox (Quanta Bioscience). Relative gene expression was determined via the 2^^(-ΔΔCt) method. Expression levels of PPARγ (peroxisome-proliferator activated receptor gamma) were determined. β-Actin was used as an endogenous control. Primers were designed with Primer-BLAST (NCBI) and purchased from Integrated DNA Technologies (IDT, Coralville, IA). MMP-2: forward: 5’-[…]-3’ reverse: 5’-[…]-3’; MMP-14: forward: 5’-[…]-3’ Reverse: 5’-[…]-3’; PPARγ: forward: 5’-[…]-3’ reverse: 5’-[…]-3’; β-Actin: forward: 5’-[…]-3’ reverse: 5’-[…]-3’.

hMSCs [2] = test: Adipogenic differentiation, lipid accumulation, co-treatment with T0070907; assay type: cell-based, human; settings: 10 μM compound with 10 μM T0070907
Experimental: (§2) Human MSCs were seeded into 6-well plates at 1,000 cells/cm^2. Upon reaching 70–80% confluence hMSCs were induced towards an adipogenic lineage by adding dexamethasone (0.5 μM), 3-isobutyl-1-methylxanthine ([…]), and indomethacin (50 μM) to the culture medium. Tested compounds were dissolved in DMSO and added to treatment wells during differentiation to a final total concentration of 10 μM with DMSO concentrations remaining constant (0.125% or 0.25% v/v) between conditions. Wells treated with appropriate concentrations of DMSO alone served as controls. Media and treatments were refreshed every 72 h for 21 days.
(§3) After 21 days of differentiation, hMSCs were washed with PBS and fixed with neutral buffered formalin for 1 h. Cells were then stained with 0.3% (w/v) Oil Red-O in 3:2 100% isopropyl alcohol to PBS for 20 min, washed with PBS, stained with 5 μg/mL Hoechst 33342 for 5 min, then washed again. Cultures were later imaged with an epifluorescence capable Nikon TE2000-E2 Eclipse microscope. Relative staining was determined with ImageJ (version 1.46c, National Institutes of Health, Bethesda, MD) by standardizing the area stained in each image to nuclei number prior to normalizing against DMSO treated controls.

MMP-14 [3] = test: qPCR of MMP-14 gene expression in hMSCs undergoing adipogenesis; assay type: cell-based, human; settings: 10 μM
Experimental: as §1

[4] = design: method as in PMID 23631440; settings: standard enzyme inhibition assay conditions; cited from earlier work
MMP-2 [5] = test: qPCR of MMP-2 gene expression in hMSCs undergoing adipogenesis; assay type: cell-based, human; settings: 10 μM
Experimental: as §1

MMP-9 = target: T1, MMP-9 (Homo sapiens, UniProt P14780); test: Fluorogenic substrate enzyme inhibition assay, MMP-9; assay type: biochemical; settings: 25°C, HEPES pH 7.5, 5 μM TCEP, fluorogenic substrate 1 μM
T1 construct: human neutrophil gelatinase B was purified from human blood; from tissue; host or cells: human blood (neutrophils)
T1 sequence (P14780 94-707): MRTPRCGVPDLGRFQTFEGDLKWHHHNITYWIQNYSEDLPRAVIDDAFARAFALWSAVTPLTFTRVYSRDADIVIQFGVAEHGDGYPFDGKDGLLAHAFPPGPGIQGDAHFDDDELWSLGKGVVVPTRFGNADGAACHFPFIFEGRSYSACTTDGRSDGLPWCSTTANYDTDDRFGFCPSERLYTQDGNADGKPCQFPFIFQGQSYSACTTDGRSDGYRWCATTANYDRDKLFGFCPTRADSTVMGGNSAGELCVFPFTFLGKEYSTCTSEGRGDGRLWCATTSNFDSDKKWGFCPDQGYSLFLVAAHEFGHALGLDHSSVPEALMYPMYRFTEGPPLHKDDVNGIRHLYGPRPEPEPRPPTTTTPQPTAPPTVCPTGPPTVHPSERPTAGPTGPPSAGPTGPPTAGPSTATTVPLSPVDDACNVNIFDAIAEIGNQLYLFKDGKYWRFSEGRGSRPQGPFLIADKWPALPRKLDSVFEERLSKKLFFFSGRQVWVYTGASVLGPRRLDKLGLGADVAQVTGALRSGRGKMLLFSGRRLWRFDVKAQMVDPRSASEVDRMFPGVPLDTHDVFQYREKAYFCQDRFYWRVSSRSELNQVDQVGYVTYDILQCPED
Experimental: (§4) Enzymatic assays to characterize inhibitor potency were performed as previously described. Assays were performed at 25°C in 50 mM 4-(2-hydroxyethyl)-1-piperazineethanesulfonic acid (HEPES) buffer at pH 7.5 with 10 mM CaCl2, 200 mM NaCl, 0.01% (w/v) Brij-35, and 5 μM tris(2-carboxyethyl)[…] (TCEP). […] Briefly, 10 μL of inhibitor solution or control (100% DMSO), 176 μL of assay buffer, and 10 μL of enzyme solution were mixed and incubated for 30 min prior to initiation of the assay, which was accomplished by adding 4 μL of substrate solution, 5% final concentration DMSO. […] Inhibitor potency was determined via comparison of relative rates (vi/vo).

MMP-1 = target: T2, MMP-1 (Homo sapiens, UniProt P03956); test: Fluorogenic substrate enzyme inhibition assay, MMP-1; assay type: biochemical; settings: 25°C, HEPES pH 7.5, 5 μM TCEP, fluorogenic substrate 1 μM
T2 construct: gift of Dr. L. Jack Windsor (Indiana University, Indianapolis, IN)
T2 sequence (P03956 100-469): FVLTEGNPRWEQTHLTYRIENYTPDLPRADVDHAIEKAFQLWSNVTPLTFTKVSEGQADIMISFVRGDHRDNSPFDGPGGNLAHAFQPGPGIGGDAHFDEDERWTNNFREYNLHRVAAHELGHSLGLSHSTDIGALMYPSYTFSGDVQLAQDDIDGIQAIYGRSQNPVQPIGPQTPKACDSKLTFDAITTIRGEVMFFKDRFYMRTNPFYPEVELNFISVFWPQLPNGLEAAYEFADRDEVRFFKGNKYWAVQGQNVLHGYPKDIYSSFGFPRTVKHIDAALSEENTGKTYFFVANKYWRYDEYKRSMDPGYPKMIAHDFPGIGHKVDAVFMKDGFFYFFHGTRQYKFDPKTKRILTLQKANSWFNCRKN
Experimental: as §4

MMP-2 [6] = target: T3, MMP-2 (Homo sapiens, UniProt P08253); test: Fluorogenic substrate enzyme inhibition assay, MMP-2; assay type: biochemical; settings: 25°C, HEPES pH 7.5, 5 μM TCEP, fluorogenic substrate 1 μM
T3 construct: gift of Dr. L. Jack Windsor (Indiana University, Indianapolis, IN)
T3 sequence (P08253 110-660): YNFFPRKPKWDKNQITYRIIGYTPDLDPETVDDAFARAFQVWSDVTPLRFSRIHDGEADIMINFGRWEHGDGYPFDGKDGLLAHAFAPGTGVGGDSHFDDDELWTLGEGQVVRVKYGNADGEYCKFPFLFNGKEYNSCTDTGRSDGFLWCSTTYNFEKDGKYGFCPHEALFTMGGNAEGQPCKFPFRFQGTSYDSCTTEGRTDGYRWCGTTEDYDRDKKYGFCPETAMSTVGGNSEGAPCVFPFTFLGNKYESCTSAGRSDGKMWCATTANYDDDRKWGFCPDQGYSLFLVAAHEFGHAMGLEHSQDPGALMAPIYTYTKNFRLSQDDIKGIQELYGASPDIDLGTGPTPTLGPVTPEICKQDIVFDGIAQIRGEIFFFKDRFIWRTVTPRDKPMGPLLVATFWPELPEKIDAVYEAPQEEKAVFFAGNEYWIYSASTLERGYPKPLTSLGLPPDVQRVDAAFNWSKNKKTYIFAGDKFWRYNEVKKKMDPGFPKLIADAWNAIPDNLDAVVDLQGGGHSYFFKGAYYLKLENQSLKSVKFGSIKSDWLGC
Experimental: as §4

MMP-14 [7] = target: T4, MMP-14 (Homo sapiens, UniProt P50281); test: Fluorogenic substrate enzyme inhibition assay, MMP-14; assay type: biochemical; settings: 25°C, HEPES pH 7.5, 5 μM TCEP, fluorogenic substrate 1 μM
T4 construct: gift of Dr. Harald Tscheche (Bielefeld University, Bielefeld, Germany)
Experimental: (§5) Enzymatic assays to characterize inhibitor potency were performed as previously described. Assays were performed at 25°C in 50 mM 4-(2-hydroxyethyl)-1-piperazineethanesulfonic acid (HEPES) buffer at pH 7.5 with 10 mM CaCl2, 200 mM NaCl, 0.01% (w/v) Brij-35, and 5 μM tris(2-carboxyethyl)[…] (TCEP). The fluorogenic substrate Mca-PLGLDpa-AR-NH2 (M-1895, Bachem, Torrance, CA) was used at a concentration of 1 μM as the substrate to measure inhibition constants. Briefly, 10 μL of inhibitor solution or control (100% DMSO), 176 μL of assay buffer, and 10 μL of enzyme solution were mixed and incubated for 30 min prior to initiation of the assay, which was accomplished by adding 4 μL of substrate solution, 5% final concentration DMSO. The release of product was monitored by fluorescence (λex = 328 nm, λem = 393 nm) with a PerkinElmer luminescence spectrophotometer LS50B (FL WinLab v3.0) connected to a temperature-controlled water bath. Inhibitor potency was determined via comparison of relative rates (vi/vo).

hMSCs [8] = test: Relative cell number via nuclei counts in differentiating hMSCs; assay type: cell-based, human
Experimental: as §3
Fig 5 Co-treatment of differentiating hMSCs with T0070907 and MMPIs. […] DMSO vehicle was maintained consistent between treatments and used as control. (B) Relative cell number was determined via nuclei counts. […] Scale bar 150 μm. ** P < 0.05, ++ P < 0.05, ## P < 0.05 compared to T0070907.

hMSCs [9] = test: Cytotoxicity assay (Trypan Blue, cell count); assay type: cell-based, human; settings: 0–100 μM, 24 h
Experimental: Mercaptosulfonamide MMPIs were dissolved in 100% DMSO to generate 8 mM stock solutions and subsequently diluted with αMEM, while maintaining the final DMSO concentration at 1.25% (v/v). Media supplemented with a panel of final inhibitor concentrations ranging from 0–100 μM were then added to 70–80% confluent hMSC cultures and incubated for 24 h. At the end of treatment, inhibitor-conditioned media was removed and cells were washed with phosphate buffered saline (PBS) (pH 7.4) prior to being trypsinized (0.25% Trypsin, GE Healthcare), pelleted, and resuspended in 1 mL of fresh αMEM. Aliquots of the cell suspension for each condition were diluted 1:1 with 0.4% (w/v) Trypan Blue and counted with a hemocytometer. Relative cytotoxicity was determined by normalizing cell number for each condition against its respective control. A concentration was arbitrarily deemed cytotoxic if it produced a statistically significant reduction in cell number when compared to DMSO controls.

MMP-7 = target: T5, MMP-7 (Homo sapiens, UniProt P09237); test: Fluorogenic substrate enzyme inhibition assay, MMP-7; assay type: biochemical; settings: 25°C, HEPES pH 7.5, 5 μM TCEP, fluorogenic substrate 1 μM
T5 construct: gift of Dr. Harold E. Van Wart (Syntex, Palo Alto, CA)
T5 sequence (P09237 95-267): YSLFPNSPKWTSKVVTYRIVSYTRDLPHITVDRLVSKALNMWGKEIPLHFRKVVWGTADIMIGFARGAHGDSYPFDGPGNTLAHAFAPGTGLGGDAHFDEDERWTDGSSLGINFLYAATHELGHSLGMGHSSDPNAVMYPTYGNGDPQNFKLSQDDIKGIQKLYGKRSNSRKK
Experimental: as §5

hMSCs [10] = test: Adipogenic differentiation, lipid accumulation by Oil Red-O staining; assay type: cell-based, human; settings: 10 μM, 21 days differentiation, vs DMSO control
Experimental: as §2, §3

[11] = test system: MCF-7 breast cancer cells; design: method as in PMID 21498701; settings: treatments up to 20 μM, without induction of apoptosis; cited from earlier work
PPARγ [12] = test system: PPARγ; design: method as in PMID 11877444; settings: read-out: apparent IC50; cited from earlier work
[13] = design: method as in PMID 19752200; settings: up to 50 μM; cited from earlier work
[14] = test system: MDA-MB-231 breast cancer cells; design: method as in PMID 21498701; settings: treatments up to 20 μM, without induction of apoptosis; cited from earlier work
[15] = Day 21, compared to the negative control

IC50 (MMP-9): 0.087 ± 0.009 µM | IC50 (MMP-1): 1.2 ± 0.37 µM | IC50 (MMP-2 [6]): 0.0055 ± 0.0042 µM | IC50 (MMP-14 [7]): 0.0043 ± 0.0007 µM | IC50 (MMP-7): 2.4 ± 0.72 µM
Structure (SMILES): NCCCCCC(=O)N1C[C@H](NS(=O)(=O)c2ccc(Oc3ccccc3)cc2)[C@@H](S)C1 (relative stereo) [YHJ-7-52]
PPARγ expression (PPARγ [1]): significantly suppressed PPARγ expression after day 9 | Further reduction of lipid accumulation on co-treatment with T0070907 (hMSCs [2]): ~ 20% | MMP-14 gene expression level on Day 21 (MMP-14 [3]; [15]): significantly higher | MMP-14 gene expression level (MMP-14 [3]; over 21 days, vs DMSO control): does not affect | Stability [4]: lower stability than the hydroxamate MMPI GM6001 | MMP-2 gene expression level on Day 21 (MMP-2 [5]; [15]): significantly higher | MMP-2 gene expression level (MMP-2 [5]; over 21 days, vs DMSO control): does not affect | Further reduction of cell number on co-treatment with T0070907 (hMSCs [8]; 10 μM compound with 10 μM T0070907): did not result in further cell number reductions | Concentration producing a significant reduction in cell number (hMSCs [9]): 100 µM

IC50 (MMP-9): > 200 µM | IC50 MMP-9 (MMP-9): almost undetectable inhibitory activity | IC50 (MMP-1): > 200 µM | IC50 MMP-1 (MMP-1): almost undetectable inhibitory activity | IC50 (MMP-2 [6]): > 100 µM | IC50 MMP-2 (MMP-2 [6]): almost undetectable inhibitory activity | IC50 (MMP-14 [7]): > 200 µM | IC50 MMP-14 (MMP-14 [7]): almost undetectable inhibitory activity | IC50 (MMP-7): > 200 µM | IC50 MMP-7 (MMP-7): almost undetectable inhibitory activity
Structure (SMILES): NCCCCCC(=O)N1C[C@H](NS(=O)(=O)c2ccc(Oc3ccccc3)cc2)[C@@H](O)C1 (relative stereo) [YHJ-7-82]
Further reduction of lipid accumulation on co-treatment with T0070907 (hMSCs [2]): did not provide any additional reductions | Reduction of lipid accumulation (hMSCs [10]): did not produce a significant response | Cytotoxicity (hMSCs [9]): minimal cytotoxicity across all tested concentrations

IC50 (MMP-14 [7]): 0.0005 ± 0.0001 µM | IC50 (MMP-7): 0.002 ± 0.0019 µM
Structure (SMILES): CNC(=O)[C@H](Cc1c[nH]c2ccccc12)NC(=O)[C@@H](CC(=O)NO)CC(C)C [GM6001, reference compound]
Further reduction of lipid accumulation on co-treatment with T0070907 (hMSCs [2]): ~ 20% | Reduction of lipid accumulation (hMSCs [10]): ~20%

More lines, now with the values behind:

Structure (SMILES): O=C(Nc1ccncc1)c1cc([N+](=O)[O-])ccc1Cl [T0070907]
Proliferation of MCF-7 cells [11]: […] | IC50 (PPARγ [12]): […] | Reduction of lipid accumulation (hMSCs [10]): 20% | Cytotoxicity [13]: minimally cytotoxic | Reduction of relative cell number (hMSCs [8]; 10 μM, nuclei counts): approximately 30% | Proliferation of MDA-MB-231 cells [14]: […]

Structure (SMILES): Cc1c(C)c2c(c(C)c1O)CCC(C)(COc1ccc(CC3SC(=O)NC3=O)cc1)O2 (centres unmarked) [Troglitazone]
Increase of lipid accumulation (hMSCs [10]): approximately 80%
